target: T1, MAT2A (Homo sapiens, UniProt P31153); assay: MAT2A biochemical assay (colorimetric inorganic phosphate detection, PiColorLock); conditions: recombinant His6-tagged MAT2A 1 μg/ml; 60 minutes preincubation at 25° C.; L-Met 80 μM, ATP 100 μM; 60 minutes reaction; read at 623 nm; read-out: MAT2A Inhibition Score
T1 construct: His6; made in house; host or cells: SF9 insect cells
Method in brief: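 Colorimetric malachite green readout of phosphate released when MAT2A turns over L-Met and ATP, after 60 min at room temperature. Enzyme: SF9-expressed His6-tagged MAT2A at 1 μg/ml. Buffer: Tris pH 8.0, 50 mM KCl, 15 mM MgCl2, 300 uM EDTA, 0.005% BSA. Compounds tested as ten-point three-fold dilutions.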

T1 sequence (P31153 whole entry): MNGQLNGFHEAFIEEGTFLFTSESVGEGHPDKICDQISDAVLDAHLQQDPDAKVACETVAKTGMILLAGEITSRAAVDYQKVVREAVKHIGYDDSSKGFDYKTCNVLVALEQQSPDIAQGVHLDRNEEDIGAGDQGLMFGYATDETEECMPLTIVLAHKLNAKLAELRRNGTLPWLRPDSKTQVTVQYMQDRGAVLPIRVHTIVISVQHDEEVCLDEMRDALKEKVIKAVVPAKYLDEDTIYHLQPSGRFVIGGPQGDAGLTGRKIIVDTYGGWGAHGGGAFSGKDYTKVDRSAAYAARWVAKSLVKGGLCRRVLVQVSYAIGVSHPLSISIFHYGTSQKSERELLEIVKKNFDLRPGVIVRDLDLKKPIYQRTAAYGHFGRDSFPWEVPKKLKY

Row | Compound | IC50
1 | Cc1[nH]c2c(C3=CC(O)CCC3)c(-c3ccccc3)nn2c(=O)c1-c1ccc2ncccc2c1 (centres unmarked) [Compound 282] | < 100 nM
2 | Cc1[nH]c2c(N3CCCCC3)c(-c3ccccc3)nn2c(=O)c1-c1ccc(C(N)=O)cc1 [Compound 305, 4-(5-methyl-7-oxo-2-phenyl-3-(piperidin-1-yl)-4,7-dihydropyrazolo[1,5-a]pyrimidin-6-yl)benzamide] | 100 to 1000 nM
3 | Cc1[nH]c2c(N3CCC(F)(F)C3)c(-c3ccccc3)nn2c(=O)c1-c1ccc2ncccc2c1 [Compound 316, 3-(3,3-difluoropyrrolidin-1-yl)-5-methyl-2-phenyl-6-(quinolin-6-yl)pyrazolo[1,5-a]pyrimidin-7(4H)-one] | 100 to 1000 nM
4 | COc1ccc(-c2c(Nc3ncnc(N)n3)[nH]c3c(C4=CCCCC4)c(-c4ccccc4)nn3c2=O)cc1 [Compound 164, 5-((4-amino-1,3,5-triazin-2-yl)amino)-3-(cyclohex-1-en-1-yl)-6-(4-methoxyphenyl)-2-phenylpyrazolo[1,5-a]pyrimidin-7(4H)-one] | < 100 nM
5 | COc1ccc(-c2c(Nc3ccon3)[nH]c3c(C4=CCCCC4)c(-c4ccccc4)nn3c2=O)cc1 [Compound 165, 3-(cyclohex-1-en-1-yl)-5-(isoxazol-3-ylamino)-6-(4-methoxyphenyl)-2-phenylpyrazolo[1,5-a]pyrimidin-7(4H)-one] | < 100 nM
6 | COc1ccc(-c2c(CO)[nH]c3c(C4=CCCCC4)c(-c4ccccc4)nn3c2=O)cc1 [Compound 229, 3-(cyclohex-1-en-1-yl)-5-(hydroxymethyl)-6-(4-methoxyphenyl)-2-phenylpyrazolo[1,5-a]pyrimidin-7(4H)-one] | < 100 nM
7 | Cc1[nH]c2c(N3CCCCC3)c(-c3ccccc3)nn2c(=O)c1-c1ccc(S(C)(=O)=O)cc1 [Compound 306, 5-methyl-6-(4-(methylsulfonyl)phenyl)-2-phenyl-3-(piperidin-1-yl)pyrazolo[1,5-a]pyrimidin-7(4H)-one] | 1000 to 10000 nM
8 | O=c1c(-c2ccc3ncccc3c2)c(Cc2ncn[nH]2)[nH]c2c(-c3ccccc3)c(-c3ccccc3)nn12 [Compound 321, 5-((1H-1,2,4-triazol-5-yl)methyl)-2,3-diphenyl-6-(quinolin-6-yl)pyrazolo[1,5-a]pyrimidin-7(4H)-one] | 100 to 1000 nM
9 | Cc1[nH]c2c(N3CCCCC3)c(-c3ccccc3)nn2c(=O)c1-c1ccc(O)cc1 [Compound 262, 6-(4-hydroxyphenyl)-5-methyl-2-phenyl-3-(piperidin-1-yl)pyrazolo[1,5-a]pyrimidin-7(4H)-one] | < 100 nM
10 | Cc1[nH]c2c(-c3ccccc3)c(-c3ccccc3F)nn2c(=O)c1-c1ccc2ncccc2c1 [Compound 205, 2-(2-fluorophenyl)-5-methyl-3-phenyl-6-(quinolin-6-yl)pyrazolo[1,5-a]pyrimidin-7(4H)-one] | < 100 nM
11 | COc1ccc(-c2c(O)[nH]c3c(C4=CCCCC4)c(-c4ccccc4)nn3c2=O)cc1 [Compound 279, 3-(cyclohex-1-en-1-yl)-5-hydroxy-6-(4-methoxyphenyl)-2-phenylpyrazolo[1,5-a]pyrimidin-7(4H)-one] | < 100 nM
12 | COc1ccc(-c2c(Nc3ncncn3)[nH]c3c(C4=CCCCC4)c(-c4ccccc4)nn3c2=O)cc1 [Compound 163, 5-((1,3,5-triazin-2-yl)amino)-3-(cyclohex-1-en-1-yl)-6-(4-methoxyphenyl)-2-phenylpyrazolo[1,5-a]pyrimidin-7(4H)-one] | < 100 nM
13 | Cc1[nH]c2c(C3CCCCC3)c(-c3ccccc3)nn2c(=O)c1-c1ccc2ncccc2c1 [Compound 277, 3-cyclohexyl-5-methyl-2-phenyl-6-(quinolin-6-yl)pyrazolo[1,5-a]pyrimidin-7(4H)-one] | < 100 nM
14 | Cc1cc(Nc2[nH]c3c(-c4ccccc4)c(-c4ccccc4)nn3c(=O)c2-c2ccc3ncccc3c2)n[nH]1 [Compound 188, 5-((5-methyl-1H-pyrazol-3-yl)amino)-2,3-diphenyl-6-(quinolin-6-yl)pyrazolo[1,5-a]pyrimidin-7(4H)-one] | < 100 nM
15 | COc1ccc(-c2c(Nc3cnncn3)[nH]c3c(C4=CCCCC4)c(-c4ccccc4)nn3c2=O)cc1 [Compound 162, 5-((1,2,4-triazin-5-yl)amino)-3-(cyclohex-1-en-1-yl)-6-(4-methoxyphenyl)-2-phenylpyrazolo[1,5-a]pyrimidin-7(4H)-one] | < 100 nM
16 | Cc1[nH]c2c(C3=CCC(F)(F)CC3)c(-c3ccccc3)nn2c(=O)c1-c1ccc2ncccc2c1 [Compound 265, 3-(4,4-difluorocyclohex-1-en-1-yl)-5-methyl-2-phenyl-6-(quinolin-6-yl)pyrazolo[1,5-a]pyrimidin-7(4H)-one] | < 100 nM

The next lines start with the values.

Row | IC50 | Compound
17 | < 100 nM | O=c1c(-c2ccc(O)cc2)c(O)[nH]c2c(-c3ccccc3)c(-c3ccccc3)nn12 [Compound 273, 5-hydroxy-6-(4-hydroxyphenyl)-2,3-diphenylpyrazolo[1,5-a]pyrimidin-7(4H)-one]
18 | < 100 nM | COc1ccc(-c2c(Nc3nnc(C)s3)[nH]c3c(-c4ccccc4)c(-c4ccccc4)nn3c2=O)cc1 [Compound 285, 6-(4-methoxyphenyl)-5-((5-methyl-1,3,4-thiadiazol-2-yl)amino)-2,3-diphenylpyrazolo[1,5-a]pyrimidin-7(4H)-one]
19 | < 100 nM | Cc1[nH]c2c(-c3ccccc3)c(-c3ccccc3)nn2c(=O)c1-c1ccc(O)c(F)c1 [Compound 238, 6-(3-fluoro-4-hydroxyphenyl)-5-methyl-2,3-diphenylpyrazolo[1,5-a]pyrimidin-7(4H)-one]
20 | < 100 nM | Cc1[nH]c2c(-c3ccccc3)c(-c3ccccc3)nn2c(=O)c1-c1ccc2c(c1)OCCO2 [Compound 211, 6-(2,3-dihydrobenzo[b][1,4]dioxin-6-yl)-5-methyl-2,3-diphenylpyrazolo[1,5-a]pyrimidin-7(4H)-one]
21 | 100 to 1000 nM | Cc1[nH]c2c(-c3ccccc3)c(-c3ccccc3)nn2c(=O)c1-c1ccc2ncnc(N)c2c1 [Compound 330, 6-(4-aminoquinazolin-6-yl)-5-methyl-2,3-diphenylpyrazolo[1,5-a]pyrimidin-7(4H)-one]
22 | < 100 nM | COc1ccc(-c2c(Nc3nnc(N)s3)[nH]c3c(-c4ccccc4)c(-c4ccccc4)nn3c2=O)cc1 [Compound 145, 5-((5-amino-1,3,4-thiadiazol-2-yl)amino)-6-(4-methoxyphenyl)-2,3-diphenylpyrazolo[1,5-a]pyrimidin-7(4H)-one]
23 | < 100 nM | COc1ccc(-c2c(Nc3ccccn3)[nH]c3c(-c4ccccc4)c(-c4ccccc4)nn3c2=O)cc1 [Compound 102, 6-(4-methoxyphenyl)-2,3-diphenyl-5-(pyridin-2-ylamino)pyrazolo[1,5-a]pyrimidin-7(4H)-one]
24 | < 100 nM | COc1ccc(-c2c(Nc3nccnc3O)[nH]c3c(-c4ccccc4)c(-c4ccccc4)nn3c2=O)cc1 [Compound 127, 5-((3-hydroxypyrazin-2-yl)amino)-6-(4-methoxyphenyl)-2,3-diphenylpyrazolo[1,5-a]pyrimidin-7(4H)-one]
25 | < 100 nM | COc1ccc(-c2c(Nc3cccc(F)n3)[nH]c3c(-c4ccccc4)c(-c4ccccc4)nn3c2=O)cc1 [Compound 110, 5-((6-fluoropyridin-2-yl)amino)-6-(4-methoxyphenyl)-2,3-diphenylpyrazolo[1,5-a]pyrimidin-7(4H)-one]
26 | < 100 nM | COc1ccc(-c2c(NCCO)[nH]c3c(-c4ccccc4)c(-c4ccccc4)nn3c2=O)cc1 [Compound 286, 5-((2-hydroxyethyl)amino)-6-(4-methoxyphenyl)-2,3-diphenylpyrazolo[1,5-a]pyrimidin-7(4H)-one]
27 | 100 to 1000 nM | COc1ccc(-c2c(C#N)[nH]c3c(-c4ccccc4)c(-c4ccccc4)nn3c2=O)cc1 [Compound 314, 6-(4-methoxyphenyl)-7-oxo-2,3-diphenyl-4,7-dihydropyrazolo[1,5-a]pyrimidine-5-carbonitrile]
28 | 100 to 1000 nM | CNC(=O)c1[nH]c2c(-c3ccccc3)c(-c3ccccc3)nn2c(=O)c1-c1ccc2ncccc2c1 [Compound 325]
29 | < 100 nM | COc1ccc(-c2c(Nc3ccnc(OC)n3)[nH]c3c(-c4ccccc4)c(-c4ccccc4)nn3c2=O)cc1 [Compound 118, 6-(4-methoxyphenyl)-5-((2-methoxypyrimidin-4-yl)amino)-2,3-diphenylpyrazolo[1,5-a]pyrimidin-7(4H)-one]
30 | 100 to 1000 nM | Cc1[nH]c2c(-c3ccccc3)c(-c3ccccc3)nn2c(=O)c1-c1ccc2nccnc2c1 [Compound 331, 5-methyl-2,3-diphenyl-6-(quinoxalin-6-yl)pyrazolo[1,5-a]pyrimidin-7(4H)-one]
31 | 1000 to 10000 nM | COc1ccc(-c2c(Oc3ccccc3)[nH]c3c(-c4ccccc4)c(-c4ccccc4)nn3c2=O)cc1 [Compound 355, 6-(4-methoxyphenyl)-5-phenoxy-2,3-diphenylpyrazolo[1,5-a]pyrimidin-7(4H)-one]
32 | < 100 nM | COc1ccc(-c2c(Nc3cc(O)ccn3)[nH]c3c(-c4ccccc4)c(-c4ccccc4)nn3c2=O)cc1 [Compound 109, 5-((4-hydroxypyridin-2-yl)amino)-6-(4-methoxyphenyl)-2,3-diphenylpyrazolo[1,5-a]pyrimidin-7(4H)-one]
33 | < 100 nM | CC(=O)NCc1[nH]c2c(-c3ccccc3)c(-c3ccccc3)nn2c(=O)c1-c1ccc2ncccc2c1 [Compound 228, N-((7-oxo-2,3-diphenyl-6-(quinolin-6-yl)-4,7-dihydropyrazolo[1,5-a]pyrimidin-5-yl)methyl)acetamide]
34 | < 100 nM | Cc1[nH]c2c(-c3ccccc3)c(-c3ccccc3)nn2c(=O)c1-c1ccc2ncn(C)c2c1 [Compound 256, 5-methyl-6-(1-methyl-1H-benzo[d]imidazol-6-yl)-2,3-diphenylpyrazolo[1,5-a]pyrimidin-7(4H)-one]
35 | < 100 nM | COc1ccc(-c2c(Nc3c[nH]cn3)[nH]c3c(-c4ccccc4)c(-c4ccccc4)nn3c2=O)cc1 [Compound 184, 5-((1H-imidazol-4-yl)amino)-6-(4-methoxyphenyl)-2,3-diphenylpyrazolo[1,5-a]pyrimidin-7(4H)-one]
